Measured values reported in PMC8294059, “Identification and Immune Assessment of T Cell Epitopes in Five Plasmodium falciparum Blood Stage Antigens to Facilitate Vaccine Candidate Selection and Optimization” (Frontiers in Immunology, 2021).
Read-outs that look alike come from different tables or passages of the source. Where a SMILES comes first, the peptide text is derived from it.

What was measured:
HLA-A*0301 = HLA-A*0301 (Homo sapiens, UniProt P04439); assay: biochemical; type: binding
Description: (§1) A cell-free class I HLA binding assay that allows for in vitro quantification of peptide-HLA binding affinity in a competition format was used. In this assay, a fluorescently labeled, high binding, control peptide is loaded onto 384-well ½-area plates along with unlabeled experimental peptides. To remove endogenous peptides and render the HLA A and B molecules receptive to binding, HLA is heated at 53°C for 15 minutes and immediately added to the assay. The mixture is then allowed to stand for three days. Once the mixture has reached steady equilibrium (at 72 hours), displacement of the high binding control peptide is measured through fluorescence polarization. Binding of experimental peptides is expressed as the percent inhibition of the labeled control peptide (experimental fluorescence / control fluorescence, multiplied by 100). The percent inhibition values for each experimental peptide (across a range of molar concentrations) are used to calculate the concentration which inhibits 50% of the labeled control peptide’s specific binding. This value is referred to as the peptide’s IC50.

HLA-A*0201 = HLA-A*0201 (Homo sapiens, UniProt P04439, D140Y/D185E/D98H/E176V/E277Q/G131W/G231S/I119V/I121R/I166T/I218V/L300P/L318F/N151K/N90K/P208A/P217A/Q86G/Q94H/R138H/R169H/T345S); assay: In vitro class I HLA binding assay (fluorescence polarization competition); settings: allele A*0201; fluorescence polarization competition; read-out: IC50 (nM), in vitro HLA binding affinity
Method in brief: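 Cell-free competition assay: HLA heat-treated 53°C for 15 min to strip endogenous peptides, then mixed with fluorescent high-affinity control peptide and test peptides for 72 h to equilibrium. Displacement read by fluorescence polarization as percent inhibition; IC50 derived from a concentration range.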

HLA-B*0702 = HLA-B*0702 (Homo sapiens, UniProt P01889); assay: as above; settings: allele B*0702
Description: as §1, with “Once the mixture has reached steady equilibrium (at 72 hours), displacement of the high binding control peptide is measured through fluorescence polarization.” left out

[1] = allele A*0301, fluorescence polarization competition, read-out: IC50 (nM), in vitro HLA binding affinity
[2] = fluorescence polarization competition, read-out: IC50 (nM), in vitro HLA binding affinity
[3] = allele A*0301, cell-free competition, fluorescence polarization at 72 hours, Non-binder = no dose-dependent inhibition, read-out: IC50
[4] = cell-free competition, fluorescence polarization at 72 hours, Non-binder = no dose-dependent inhibition, read-out: IC50

**Q.** With `CC(C)C[C@H](NC(=O)[C@H](Cc1ccc(O)cc1)NC(=O)[C@H](CCC(N)=O)NC(=O)[C@H](CC(N)=O)NC(=O)CNC(=O)[C@@H](NC(=O)[C@H](C)NC(=O)[C@@H](NC(=O)[C@@H]1CCCN1)C(C)C)[C@@H](C)O)C(=O)N[C@@H](CCCCN)C(=O)O` [AMA1_168] (H-PVATGNQYLK-OH) as the compound, how does the IC50 (HLA-A*0301; [1]) read?
**A.** The IC50 was 328000 nM.

**Q.** Which IC50 (HLA-A*0301; [1]) does the source give for `CC(C)C[C@H](NC(=O)[C@H](Cc1ccccc1)NC(=O)[C@H](C)NC(=O)[C@@H](N)CO)C(=O)N1CCC[C@H]1C(=O)N[C@H](C(=O)NCC(=O)N[C@@H](C)C(=O)N[C@@H](Cc1ccccc1)C(=O)N[C@@H](CCCCN)C(=O)O)[C@@H](C)O` [AMA1_377] (H-SAFLPTGAFK-OH) here?
**A.** Its IC50 is 345 nM.

**Q.** `CC[C@H](C)[C@H](NC(=O)[C@@H](N)Cc1ccccc1)C(=O)N[C@@H](CO)C(=O)N[C@@H](CC(=O)O)C(=O)N[C@@H](CC(=O)O)C(=O)N[C@@H](CCCCN)C(=O)N[C@@H](CC(=O)O)C(=O)N[C@@H](CO)C(=O)N[C@@H](CC(C)C)C(=O)N[C@@H](CCCCN)C(=O)O` [AMA1_480K] (H-FISDDKDSLK-OH) was tested. Which IC50 (HLA-A*0301) did it give?
**A.** The IC50 was 697000 nM.

**Q.** With `CC[C@H](C)[C@H](NC(=O)[C@@H](N)Cc1c[nH]cn1)C(=O)N[C@@H](Cc1ccc(O)cc1)C(=O)N[C@H](C(=O)N[C@@H](CCC(N)=O)C(=O)N[C@@H](CCCCN)C(=O)N[C@@H](CCCCN)C(=O)N[C@H](C(=O)N[C@@H](CCCCN)C(=O)O)C(C)C)C(C)C` [CYRPA_076] (H-HIYVQKKVK-OH) as the compound, how does the IC50 (HLA-A*0301; [1]) read?
**A.** Its IC50 is 897 nM.

**Q.** `CC[C@H](C)[C@H](NC(=O)[C@H](Cc1c[nH]c2ccccc12)NC(=O)[C@H](CO)NC(=O)[C@H](CC(=O)O)NC(=O)[C@H](CCCCN)NC(=O)[C@@H](NC(=O)[C@@H](N)CCCCN)C(C)C)C(=O)N[C@H](C(=O)N[C@@H](CC(C)C)C(=O)O)[C@@H](C)O` [CYRPA_082] (H-KVKDSWITL-OH) was tested. Which IC50 (HLA-A*0201) did it give?
**A.** Its IC50 is 4010 nM.

**Q.** What about the IC50 (HLA-B*0702; [2]) of the same compound?
**A.** The IC50 was 458 nM.

**Q.** Which IC50 (HLA-A*0301; [1]) does the source give for `CC(C)C[C@H](NC(=O)[C@@H]1CCCN1C(=O)[C@H](CC(C)C)NC(=O)[C@H](CO)NC(=O)[C@@H](NC(=O)[C@H](Cc1ccc(O)cc1)NC(=O)[C@H](CO)NC(=O)[C@H](CO)NC(=O)[C@@H](N)CC(C)C)C(C)C)C(=O)N[C@@H](CCCCN)C(=O)O` [CYRPA_161] (H-LSSYVSLPLK-OH) here?
**A.** The IC50 was 654 nM.

**Q.** How did the IC50 (HLA-A*0301; [1]) turn out when `CC[C@H](C)[C@H](NC(=O)[C@@H](N)CC(C)C)C(=O)N[C@@H](CS)C(=O)NCC(=O)N[C@H](C(=O)N[C@@H](CO)C(=O)N1CCC[C@H]1C(=O)N[C@@H](Cc1ccc(O)cc1)C(=O)N[C@@H](CCCCN)C(=O)O)C(C)C` [CYRPA_178] (H-LICGVSPYK-OH) was run?
**A.** Its IC50 is 419 nM.

**Q.** With `CC[C@H](C)[C@H](NC(=O)[C@H](Cc1ccccc1)NC(=O)[C@@H](NC(=O)[C@H](Cc1ccccc1)NC(=O)[C@@H](NC(=O)[C@@H](N)CCCCN)[C@@H](C)CC)[C@@H](C)O)C(=O)N[C@@H](CCC(=O)O)C(=O)N[C@@H](CC(N)=O)C(=O)N[C@@H](CCCCN)C(=O)O` [EBA175_0058] (H-KIFTFIENK-OH) as the compound, how does the IC50 (HLA-A*0301; [3]) read?
**A.** The IC50 was 467 nM.

**Q.** How did the IC50 (HLA-A*0301; [3]) turn out when `CC[C@H](C)[C@H](N)C(=O)N[C@@H](CC(C)C)C(=O)N[C@@H](CC(N)=O)C(=O)N[C@@H](CC(N)=O)C(=O)N[C@@H](CO)C(=O)N[C@@H](CCCCN)C(=O)N[C@@H](Cc1ccccc1)C(=O)N[C@@H](CC(N)=O)C(=O)N[C@@H](CCCCN)C(=O)O` [EBA175_0069] (H-ILNNSKFNK-OH) was run?
**A.** The IC50 was 420 nM.

**Q.** With `CC[C@H](C)[C@H](NC(=O)[C@H](Cc1c[nH]c2ccccc12)NC(=O)[C@H](CCC(=O)O)NC(=O)[C@H](CCCCN)NC(=O)[C@H](Cc1ccc(O)cc1)NC(=O)[C@H](CO)NC(=O)[C@@H](N)CC(N)=O)C(=O)N[C@@H](CO)C(=O)N[C@@H](CCCCN)C(=O)N[C@@H](CCCCN)C(=O)O` [EBA175_0667] (H-NSYKEWISKK-OH) as the compound, how does the IC50 (HLA-A*0301; [3]) read?
**A.** Its IC50 is 7370 nM.

**Q.** Which IC50 (HLA-B*0702; [4]) does the source give for `CC[C@H](C)[C@H](NC(=O)[C@@H](NC(=O)[C@H](C)NC(=O)[C@H](CCCCN)NC(=O)[C@@H]1CCCN1C(=O)[C@@H](N)CCSC)C(C)C)C(=O)NCC(=O)N[C@@H](CO)C(=O)N[C@@H](CO)C(=O)N1CCC[C@H]1C(=O)O` [EBA175_0971] (H-MPKAVIGSSP-OH) here?
**A.** Its IC50 is 293000 nM.

**Q.** How did the IC50 (HLA-B*0702; [4]) turn out when `CC[C@H](C)[C@H](NC(=O)[C@H](CC(N)=O)NC(=O)[C@H](CC(=O)O)NC(=O)[C@H](CC(N)=O)NC(=O)[C@@H]1CCCN1C(=O)[C@@H](N)CO)C(=O)N[C@@H](CC(N)=O)C(=O)N[C@H](C(=O)N[C@H](C(=O)O)[C@@H](C)O)C(C)C` [EBA175_0979] (H-SPNDNINVT-OH) was run?
**A.** The IC50 was 36100 nM.

**Q.** How did the IC50 (HLA-B*0702; [4]) turn out when `CC(C)C[C@H](NC(=O)[C@@H](NC(=O)[C@H](CC(N)=O)NC(=O)[C@H](CO)NC(=O)[C@H](CC(N)=O)NC(=O)[C@H](CCCNC(=N)N)NC(=O)[C@H](CC(=O)O)NC(=O)[C@H](CCC(=O)O)NC(=O)[C@@H]1CCCN1C(=O)[C@@H](N)CC(N)=O)[C@@H](C)O)C(=O)O` [EBA175_1224] (H-NPEDRNSNTL-OH) was run?
**A.** Its IC50 is 2700 nM.

**Q.** `CC(C)C[C@H](NC(=O)[C@H](CC(=O)O)NC(=O)[C@H](CC(N)=O)NC(=O)[C@H](CCCCN)NC(=O)[C@H](CCCCN)NC(=O)[C@H](CCCCN)NC(=O)[C@H](CC(N)=O)NC(=O)[C@H](CO)NC(=O)[C@@H]1CCCN1C(=O)[C@@H](N)[C@@H](C)O)C(=O)O` [RH5_286] (H-TPSNKKKNDL-OH) was tested. Which IC50 (HLA-B*0702; [2]) did it give?
**A.** The IC50 was 1880 nM.

**Q.** For `CC[C@H](C)[C@H](N)C(=O)N[C@H](C(=O)N[C@@H](CO)C(=O)N[C@@H](CC(=O)O)C(=O)N[C@@H](Cc1c[nH]cn1)C(=O)N[C@@H](CC(C)C)C(=O)N[C@@H](CCCNC(=N)N)C(=O)N[C@@H](CCC(N)=O)C(=O)N[C@@H](CCSC)C(=O)O)[C@@H](C)O` [RH5_470] (H-ITSDHLRQM-OH), which IC50 (HLA-B*0702; [2]) is on record?
**A.** The IC50 was 183000 nM.

**Q.** For `CSCC[C@H](NC(=O)[C@H](CCC(=O)O)NC(=O)[C@H](CC(N)=O)NC(=O)[C@H](CCC(=O)O)NC(=O)[C@H](CCC(N)=O)NC(=O)[C@H](CC(C)C)NC(=O)[C@H](CC(N)=O)NC(=O)[C@H](CC(C)C)NC(=O)[C@@H]1CCCN1C(=O)[C@@H](N)CO)C(=O)O` [RIPR_0246] (H-SPLNLQENEM-OH), which IC50 (HLA-B*0702; [2]) is on record?
**A.** The IC50 was 22400 nM.

**Q.** How did the IC50 (HLA-B*0702; [2]) turn out when `CC(C)C[C@H](NC(=O)[C@@H](NC(=O)[C@H](CO)NC(=O)[C@H](CCC(=O)O)NC(=O)[C@H](CS)NC(=O)[C@H](CC(=O)O)NC(=O)[C@H](CC(N)=O)NC(=O)[C@@H]1CCCN1C(=O)[C@@H](N)CCCNC(=N)N)C(C)C)C(=O)O` [RIPR_0676] (H-RPNDCESVL-OH) was run?
**A.** Its IC50 is 377 nM.

**Q.** How did the IC50 (HLA-A*0201) turn out when `CC[C@H](C)[C@H](NC(=O)[C@H](CS)NC(=O)[C@@H](NC(=O)CNC(=O)[C@H](CC(N)=O)NC(=O)[C@H](CCC(=O)O)NC(=O)[C@H](CC(C)C)NC(=O)[C@@H](NC(=O)[C@@H](N)Cc1ccccc1)C(C)C)C(C)C)C(=O)O` [RIPR_0745] (H-FVLENGVCI-OH) was run?
**A.** The IC50 was 4170 nM.

**Q.** What about the IC50 (HLA-B*0702; [2]) of the same compound?
**A.** Its IC50 is 284000 nM.
